Data taken from patent publication US20010033888A1, “Crystalline trehalose dihydrate, its preparation and uses” (KABUSHIK KAISHA HAYASHIBARA SEIBUTS KAGAKU KENKYUJO, priority 1998, published 2001).
“And” between values parts separate entries of the source, which are not always exact repeats. Equal values may be shown once.

Tests used:
Format in all cases: physicochemical
[1] = Intrusion disruptive strength by rheometer (needle about 3 mm in diameter); settings: stage elevated at 6 cm/min, three specimens each, strength when needle ruptures the crystal
Method: As a representative polyhedral crystalline trehalose dihydrate having the c axis of about 10 mm, obtained by the methods in the later described Examples A-1 and A-2, three specimens with a tetradodecahedral crystalline structure were used and examined for the crystallinity by powdery X-ray diffraction analysis and the intrusion disruptive strength by rheometer. The crystallinity was determined by pulverizing a specimen and applying the Ruland method in Acta Crystallographica, Vol. 14, p. 1,180 (1961) using “GEIGERFLEX RAD-IIB”, an X-ray diffraction analyzer using Cuka ray commercialized by Rigaku Corporation, Tokyo, Japan, based on the powdery X-ray diffraction intensity. Using “FUDOH RHEO METER NRM-2010J-CW”, a rheometer commercialized by Rheotech Co., Ltd., Tokyo, Japan; and a needle, about 3 mm in diameter, as an adaptor, the intrusion disruptive strength was determined by placing a polyhedral crystal on a specimen stage, elevating the stage to the direction of the needle at a rate of 6 cm/min, and measuring the strength (kg) when the needle intrudes into and ruptures the polyhedral crystal. As a control, commercially available crystal sugar with a size equivalent to those of the specimens was examined similarly as above.

[2] = Hygroscopicity / solidification of the crystal products; settings: dried crystal product; dihydrate
[3] = Crystallinity by powdery X-ray diffraction analysis (Ruland method); settings: pulverized specimen, three specimens each, c axis about 10 mm, tetradodecahedral crystal
Method: The crystallinity was determined by pulverizing a specimen and applying the Ruland method in Acta Crystallographica, Vol. 14, p. […] As a control, commercially available crystal sugar with a size equivalent to those of the specimens was examined similarly as above.

Row | Compound | Intrusion disruptive strength ([1]; dihydrate) | Hygroscopicity and solidification [2] | Crystallinity ([3]; dihydrate) | Intrusion disruptive strength [1] | Crystallinity [3]
1 | O.O.OC[C@H]1O[C@H](O[C@H]2O[C@H](CO)[C@@H](O)[C@H](O)[C@H]2O)[C@H](O)[C@@H](O)[C@@H]1O [Example A-2, crystalline trehalose dihydrate] | 3.8 kg and 3.5 kg | insubstantial hygroscopicity and solidification | 84% and 83% |  | 
2 | OC[C@H]1O[C@@](CO)(O[C@H]2O[C@H](CO)[C@@H](O)[C@H](O)[C@H]2O)[C@@H](O)[C@@H]1O [Sugar crystal, reference compound] |  |  |  | 9.9 kg and 10.0 kg | 84% and 85%
3 | O.O.OC[C@H]1O[C@H](O[C@H]2O[C@H](CO)[C@@H](O)[C@H](O)[C@H]2O)[C@H](O)[C@@H](O)[C@@H]1O [Example A-1, crystalline trehalose dihydrate] | 4.3 kg and 4.1 kg and 4.0 kg | do not substantially absorb moisture to be solidified | 84% and 83% |  | 
